The values that follow come from patent US20150166523A1, “BRANCHED CHAIN ALKYL HETEROAROMATIC RING DERIVATIVE” (TAISHO PHARMACEUTICAL CO., LTD., priority 2012, published 2015).

As a reminder, the pIC50 is −log10 of the IC50, conventionally taken in molar units.

Structures are written as SMILES. pIC50: −log10 of the molar value.

The target in test [1] is T1, orexin-2 receptor (hOX2R) (Homo sapiens, UniProt O43614).
T1 construct: expressed in transfected cells; host or cells: Chinese hamster ovary (CHO) cells
T1 sequence (O43614 1-444): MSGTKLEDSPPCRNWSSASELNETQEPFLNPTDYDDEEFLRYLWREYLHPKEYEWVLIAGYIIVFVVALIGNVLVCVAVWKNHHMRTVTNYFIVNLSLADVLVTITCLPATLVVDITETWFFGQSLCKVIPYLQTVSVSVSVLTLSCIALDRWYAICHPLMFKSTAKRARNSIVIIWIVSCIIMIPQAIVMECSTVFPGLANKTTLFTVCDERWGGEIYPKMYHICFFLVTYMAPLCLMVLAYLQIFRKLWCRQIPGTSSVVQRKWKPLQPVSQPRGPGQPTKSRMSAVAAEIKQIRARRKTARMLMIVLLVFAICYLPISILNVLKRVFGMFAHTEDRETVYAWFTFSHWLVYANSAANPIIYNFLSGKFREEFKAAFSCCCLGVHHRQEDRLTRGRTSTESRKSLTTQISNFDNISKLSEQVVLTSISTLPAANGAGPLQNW
Kind of test: Measurement of orexin antagonistic activity (intracellular Ca2+ fluorescence, FDSS) on hOX2R. It counts as cell-based. The conditions noted are these: CHO cells forcibly expressing hOX2R; Fluo-4AM; ligand peptide (substituted human orexin-A) 3 nM; compound preincubated 30 minutes; read-out: IC50 Value OX2. The method, boiled down:
(§1)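 CHO cells stably expressing hOX1R or hOX2R, loaded with 0.5 μM Fluo-4AM in HEPES/HBSS buffer with 0.1% BSA and 2.5 mM probenecid, pH 7.4, then preincubated 30 min with compound. Fluorescence recorded each second for 3 min by FDSS; maximum intensity taken as intracellular Ca2+ indicator of antagonism.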

The target of test [2] is T2, human orexin-1 receptor (hOX1R) (Homo sapiens, UniProt O43613).
T2 construct: expressed in transfected cells; host or cells: Chinese hamster ovary (CHO) cells
T2 sequence (O43613 1-425): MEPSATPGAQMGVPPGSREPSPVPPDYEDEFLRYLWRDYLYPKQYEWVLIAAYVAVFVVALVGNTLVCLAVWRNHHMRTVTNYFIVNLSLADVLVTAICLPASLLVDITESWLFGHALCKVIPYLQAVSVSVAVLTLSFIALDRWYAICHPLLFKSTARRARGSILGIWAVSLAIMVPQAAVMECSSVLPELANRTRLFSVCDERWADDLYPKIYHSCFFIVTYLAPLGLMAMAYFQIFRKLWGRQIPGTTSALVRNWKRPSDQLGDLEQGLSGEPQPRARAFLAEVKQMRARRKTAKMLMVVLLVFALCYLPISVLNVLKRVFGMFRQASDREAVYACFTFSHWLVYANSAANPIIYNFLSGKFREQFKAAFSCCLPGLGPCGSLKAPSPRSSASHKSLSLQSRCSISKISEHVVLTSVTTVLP
In words: Measurement of orexin antagonistic activity (intracellular Ca2+ fluorescence, FDSS) on hOX1R. The conditions noted are these: CHO cells forcibly expressing hOX1R; Fluo-4AM; ligand peptide (substituted human orexin-A) 300 pM; compound preincubated 30 minutes; read-out: IC50 Value OX1. It counts as cell-based. The method, boiled down:
as §1

Turning to `CCN(C(=O)c1nc(C)ccc1-n1nccn1)[C@@H](C)Cn1ccc(-c2ccc(F)cc2)n1` [Example 3, N-Ethyl-N-[(2S)-1-[3-(4-fluorophenyl)-1H-pyrazol-1-yl]propan-2-yl]-6-methyl-3-(2H-1,2,3-triazol-2-yl) pyridine-2-carboxamide], the pIC50 in test [1] is 8.35; in test [2], 9.00.
With `Cc1ccc(-n2nccn2)c(C(=O)N(CCO)[C@@H](C)Cn2cc(-c3ccc(F)cn3)cn2)c1` [Example 41, N-{(2S)-1-[4-(5-Fluoropyridin-2-yl)-1H-pyrazol-1-yl]propan-2-yl}-N-(2-hydroxyethyl)-5-methyl-2-(2H-1,2,3-triazol-2-yl)benzamide], the pIC50 was 7.06 in test [1] and 7.51 in test [2].
Turning to `CCN(C(=O)c1cc(C)ccc1-n1nccn1)[C@@H](C)Cc1noc(-c2ccc(F)cn2)n1` [Example 47, N-Ethyl-N-{(2S)-1-[5-(5-fluoropyridin-2-yl)-1,2,4-oxadiazol-3-yl]propan-2-yl}-5-methyl-2-(2H-1,2,3-triazol-2-yl) benzamide], the negative logarithm of the IC50 (pIC50) is 8.02 in test [1] and 9.10 in test [2].
In the same order, the values of `CCN(C(=O)c1nc(C)ccc1-c1ncccn1)[C@@H](C)Cc1noc(-c2ccc(F)cc2)n1` [Example 52, N-Ethyl-N-{(2S)-1-[5-(4-fluorophenyl)-1,2,4-oxadiazol-3-yl]propan-2-yl}-6-methyl-3-(pyrimidin-2-yl)pyridine-2-carboxamide] are 6.43 and 8.04.
For `Cc1ccc(-n2nccn2)c(C(=O)N(C)[C@@H](C)Cc2noc(-c3ccc(F)cn3)n2)c1` [Example 45, N-{(2S)-1-[5-(5-Fluoropyridin-2-yl)-1,2,4-oxadiazol-3-yl]propan-2-yl}-N,5-dimethyl-2-(2H-1,2,3-triazol-2-yl)benzamide], the pIC50 in test [1] was 7.12; in test [2], 8.48.
As to `COCCN(C(=O)c1cc(C)ccc1-n1nccn1)[C@@H](C)Cn1ccc(-c2ccc(F)cc2)n1` [Example 39, N-{(2S)-1-[3-(4-Fluorophenyl)-1H-pyrazol-1-yl]propan-2-yl}-N-(2-methoxyethyl)-5-methyl-2-(2H-1,2,3-triazol-2-yl)benzamide], the pIC50 is 8.26 in test [1] and 8.92 in test [2].
In the case of `CCN(C(=O)c1cc(C)ccc1-n1nccn1)[C@@H](C)Cn1cc(-c2ccc(Cl)cc2)nn1` [Example 92, N-{(2S)-1-[4-(4-Chlorophenyl)-1H-1,2,3-triazol-1-yl]propan-2-yl}-N-ethyl-5-methyl-2-(2H-1,2,3-triazol-2-yl)benzamide], the results for the pIC50 in test [1] and in test [2] were 7.19 and 8.60, respectively.
Regarding `CCN(C(=O)c1ccccc1-n1nccn1)[C@@H](C)Cc1noc(-c2ccc(F)cn2)n1` [Example 56, N-Ethyl-N-{(2S)-1-[5-(5-fluoropyridin-2-yl)-1,2,4-oxadiazol-3-yl]propan-2-yl}-2-(2H-1,2,3-triazol-2-yl)benzamide], the figures for the negative logarithm of the IC50 (pIC50) in test [1] and in test [2] were 6.22 and 8.30, respectively.
As for `CCN(C(=O)c1nc(C)ccc1-n1nccn1)[C@@H](C)Cc1noc(-c2ccc(F)cc2)n1` [Example 49, N-Ethyl-N-{(2S)-1-[5-(4-fluorophenyl)-1,2,4-oxadiazol-3-yl]propan-2-yl}-6-methyl-3-(2H-1,2,3-triazol-2-yl)pyridine-2-carboxamide], the pIC50 in test [1] is 7.49; in test [2], 8.96.
Consider `CCN(C(=O)c1cc(C)ccc1-c1ncccn1)[C@@H](C)Cn1nnc(-c2ccc(F)cc2)n1` [Example 68, N-Ethyl-N-{(2S)-1-[5-(4-fluorophenyl)-2H-tetrazol-2-yl]propan-2-yl}-5-methyl-2-(pyrimidin-2-yl)benzamide], for which the pIC50 in test [1] was 7.47; in test [2], 9.10.
For `CCN(C(=O)c1ccccc1-n1nccn1)[C@@H](C)Cn1nnc(-c2ccc(F)cc2)n1` [Example 67], the pIC50 in test [1] is 7.12; in test [2], 8.74.
In the same order, the values of `CCN(C(=O)c1ccccc1-n1nccn1)[C@@H](C)Cc1noc(-c2ccc(F)cc2)n1` [Example 51, N-Ethyl-N-{(2S)-1-[5-(4-fluorophenyl)-1,2,4-oxadiazol-3-yl]propan-2-yl}-2-(2H-1,2,3-triazol-2-yl)benzamide] are 8.03 and 9.70.
`CCN(C(=O)c1cc(F)ccc1-n1nccn1)[C@@H](C)Cc1noc(-c2ccc(F)cc2)n1` [Example 50, N-Ethyl-5-fluoro-N-{(2S)-1-[5-(4-fluorophenyl)-1,2,4-oxadiazol-3-yl]propan-2-yl}-2-(2H-1,2,3-triazol-2-yl) benzamide]: the negative logarithm of the IC50 (pIC50) in test [1] was 7.77; in test [2], 9.10.
Consider `Cc1ccc(-n2nccn2)c(C(=O)N(C)[C@@H](C)Cn2cc(-c3ccc(F)cn3)cn2)c1` [Example 22, N-{(2S)-1-[4-(5-Fluoropyridin-2-yl)-1H-pyrazol-1-yl]propan-2-yl}-N,5-dimethyl-2-(2H-1,2,3-triazol-2-yl) benzamide], for which the values for the pIC50 in test [1] and in test [2] were 7.28 and 8.42, respectively.
In the case of `CC[C@@H](Cn1ccc(-c2ccc(F)cn2)n1)N(C)C(=O)c1cc(C)ccc1-n1nccn1` [Example 24, N-{(2S)-1-[3-(5-Fluoropyridin-2-yl)-1H-pyrazol-1-yl]butan-2-yl}-N,5-dimethyl-2-(2H-1,2,3-triazol-2-yl) benzamide], the pIC50 in test [1] is 7.38; in test [2], 8.01.
Regarding `CCN(C(=O)c1nc(C)ccc1-n1nccn1)[C@@H](C)Cn1ccc(-c2ccc(F)c(F)c2)n1` [Example 16, N-[(2S)-1-[3-(3,4-Difiuorophenyl)-1H-pyrazol-1-yl]propan-2-yl]-N-ethyl-6-methyl-3-(2H-1,2,3-triazol-2-yl)pyridine-2-carboxamide], the pIC50 is 8.01 in test [1] and 8.74 in test [2].
